Results published in patent US10829519B2, “Angiotensin (1-7) analogs and methods relating thereto” (WAKE FOREST UNIVERSITY HEALTH SCIENCES, priority 2015, dated 2020).
Like-named read-outs stand apart in the source and are kept apart here. One block for each compound: values may come before it. Where a SMILES comes first, the peptide text is derived from it. Bridges are numbered along the chain shown (N, C = ends). [ ]: non-standard residue; d: D form. Nle = CCCC[C@H](N)C(=O)O

Columns and labels:
[1] = Stability of peptides incubated in rat plasma at 37° C., HPLC; format: in vitro ADME
Method: The stability of the Ang(1-7) peptide analog TCAng04 (SEQ ID NO:5) was assessed in rat plasma. The peptide was incubated with rat plasma at 37° C. for 60 min (left) or 125 hours (right). The concentration of TCAng04 and Ang-(1-7) was determined by HPLC using verified standards. Ang-(1-7) was rapidly degraded following incubation in rat plasma with a half-life of about 30 min, similar to the pharmacokinetics observed in two clinical trials (FIG. 1B) (see Rodgers et al. Cancer Chemother Pharmacol 2006; 57:559-68; and Petty et al. Clinical Cancer Research 2009; 15:7398-404). Conversely, TCAng04 was stable under the same conditions, with a half-life in rat plasma of approximately 50 hours.

[2] = system: 4T1 breast cancer cells; test: In vivo inhibition of tumor growth by subcutaneous administration, orthotopic 4T1 model in BALB/C mice; set-up: species or system mouse
Method: The ability of TCAng05 to inhibit tumor growth in vivo was measured in an orthotopic model of human breast cancer, using 4T1 breast cancer cells. 4T1 cells (2.5×10^5 in saline) were injected into the 4th mammary fat pad of BALB/C mice. Tumor size was measured every 3 days using a caliper and tumor volume was calculated using the formula for a semi-ellipsoid. The tumors were allowed to grow until they reached a size of 100 mm^3, at which point subcutaneous treatment was started (Day 0). Primed osmotic mini-pumps were implanted into the subcutaneous space on the back of each mouse to deliver either saline, 24 μg/kg/h Ang-(1-7), 6 μg/kg/h TCAng05 (low), 12 μg/kg/h TCAng05 (medium), or 24 μg/kg/h TCAng05 (high). Mice were sacrificed on Day 21 of treatment. Five animals were used per treatment group. […] Treatment with Ang-(1-7) reduced tumor size 50%, to a final size of 495.5±110.8 mm^3. […] At the time of sacrifice, the mice were weighed and the tumors, heart and kidneys were weighed.

[3] = system: MDA-MB-231 human breast cancer cells; format: cell-based; settings: 7 to 10 days; for reduction of cell growth / effect on MDA-MB-231 cell growth: 100 nM; for reduction of cell growth: analogs added on Day 0 (single dose), cell number; for effect on MDA-MB-231 cell growth: added once (Day 0/Day 1)
Method: (§1) To determine the effect of the peptide analogs on tumor cell growth, 100 nM Ang-(1-7) or analogs TCAng01-TCAng05 (SEQ ID NOs:2-6) were incubated with subconfluent monolayers of actively growing A549 human lung cancer cells or MDA-MB-231 human breast cancer cells in 24-well cluster plates for 6 to 10 days or 7 to 10 days. Assays were performed in duplicate for 4-14 replicates or 3-14 replicates, respectively. Cell number was counted using a Nexelcom Cellometer. […] Ang-(1-7) does inhibit the growth of human breast cancer cells (by 42.9±5.2%, n=6, over 6-10 days) and human lung cancer cells (by 53.1±7.1%, n=12, over 7-10 days) if it is added daily, as shown in FIG. 2 and FIG. 3.
A linear form of TCAng05 (L-TCAng05; SEQ ID NO:7) was tested to determine the influence of cyclization on the stability of the peptide. Subconfluent monolayers of MDA-MB-231 human breast cancer cells were incubated with 100 nM of Ang-(1-7), L-TCAng05, or TCAng05 for 7 to 10 days and cell number was counted using a Nexelcom Cellometer. Assays were performed in duplicate for 3-14 replicates. Ang-(1-7) was added daily, due to its rapid degradation.
Similar assays were performed to assess whether inhibition of cell growth by TCAng05 was mediated by the Ang-(1-7) receptor mas. Subconfluent monolayers of MDA-MB-231 human breast cancer cells were incubated with 100 nM of Ang-(1-7), added daily, or TCAng05, in the presence or absence of 1 μM Ang-(1-7) receptor antagonist D-Alanine^7-Ang-(1-7) [Dala] for 7 to 10 days and cell number was counted using a Nexelcom Cellometer. Assays were performed in duplicate for 4-14 replicates.

[4] = system: A549 human lung cancer cells; format: cell-based; settings: 100 nM, analogs added on Day 0 (single dose), cell number
Method: as §1

[5] = system: 4T1 breast cancer cells; format: in vivo, mouse; settings: for final tumor volume: daily gavage, untreated 671.2±127.2
Method: The oral efficacy of TCAng05 to inhibit tumor growth in vivo was also measured using the orthotopic model of human breast cancer described in Example 4. 4T1 breast cancer cells were injected into the mammary fat pad of BALB/C mice (2.5×10^5 cells in saline). Tumor size was measured every 3 days using a caliper and tumor volume was calculated using the formula for a semi-ellipsoid. The tumors were allowed to grow until they reached a size of 100 mm^3, at which point treatment was started (Day 0). Mice received daily gavage of TCAng05 at one of three concentrations: 12 μg/kg/day (Low), 60 μg/kg/day (Medium), or 300 μg/kg/day (High). Mice were sacrificed on Day 21 of treatment. Treatment groups contained 3-4 animals. […] At the time of sacrifice, the tumors were weighed.

[6] = system: Ki67; test: Ki67 immunohistochemistry of tumors from orally treated mice (cell proliferation); format: in vivo, mouse; settings: oral TCAng05, 12, 60, 300 μg/kg/day
Method: (§2) To identify the molecular mechanisms for the reduction in tumor weight, tumors from mice that received oral TCAng05 (described in Example 5) were assessed for cell markers associated with cell proliferation, angiogenesis, and fibrosis. Tumors were fixed in 4% formalin, embedded in paraffin, sectioned at 5 microns, and analyzed by immunohistochemistry. Tumor tissue sections were visualized using a Leica DM microscope (Leica Microsystems, Bannockburn, Ill.) with the Simple PCI Version 6.0 computer-assisted imaging software (Hamamatsu Corporation, Sewickley, Pa.) and photographed with the Qlmaging Retiga 1300R Camera (Qlmaging Co. Surey, BC, Canada). The number of immunopositive cells is expressed as a percentage of the total cell number examined (100 cells counted from each tissue site within a tumor section).
Tumor sections were stained with an antibody specific for Ki67 to measure cell proliferation.

[7] = system: CD34; test: CD34 immunohistochemistry of tumors from orally treated mice (blood vessel density); format: in vivo, mouse; settings: oral TCAng05
Method: as §2
Tumor sections were stained with an antibody specific for CD34 to label endothelial cells lining blood vessels and measure the density of blood vessels. […] In previous studies with orthotopic models, Ang-(1-7) reduced angiogenesis in mice with human lung tumors or human prostate tumors (Soto-Pantoj a et al., Mol Cancer Ther 2009; 8:1676-83; Krishnan et al., Prostate 2013; 73:60-70). This is in agreement with a reduction in the pro-angiogenic peptide platelet-derived growth factor (PDGF) in patients with solid tumors treated with Ang-(1-7) (Petty et al., BMC Cancer 2012; 12:404).

[8] = system: collagen; test: Picrosirius red collagen staining of tumors from orally treated mice (fibrosis); format: in vivo, mouse; settings: oral TCAng05
Method: as §2
Tumor sections were stained with Picrosirius red to stain for collagen.

[9] = system: MDA-MB-231 human breast cancer cells; test: In vitro inhibition of MDA-MB-231 cell growth by analogs with amino acid substitutions (Example 7); format: cell-based; settings: 100 nM, 8-10 days; for growth inhibition compared with Ang-(1-7) and TCAng05: added twice weekly
Method: To determine whether the novel analogs reduced tumor growth, subconfluent monolayers of actively growing MDA-MB-231 human breast cancer cells in 24-well cluster plates were incubated with 100 nM of Ang(1-7) (A7), TCAng05 (TC), or one of analogs NEP1-24 for 8-10 days. Ang-(1-7) was added daily as it is rapidly degraded while the Ang(1-7) analogs were added twice weekly at the time the cells were fed. Saline was used as control (C). Cell numbers were then counted using a Nexelcom Cellometer. Assays were performed in triplicate for 2-4 replicates.

[10] = rat plasma, 37° C., HPLC, read-out: half-life in rat plasma (converted)

half-life [1, 10]: ~30 min | half-life ([1]; read-out: half-life in plasma): 30 min | weight of the mice, size of hearts and kidneys ([2]; subcutaneous treatment, at sacrifice): no change
Compound: CC[C@H](C)[C@H](NC(=O)[C@H](Cc1ccc(O)cc1)NC(=O)[C@@H](NC(=O)[C@H](CCCNC(=N)N)NC(=O)[C@@H](N)CC(=O)O)C(C)C)C(=O)N[C@@H](Cc1c[nH]cn1)C(=O)N1CCC[C@H]1C(=O)O [Ang-(1-7), DRVYIHP]

half-life [1, 10]: ~3000 min
Compound: CC[C@H](C)[C@@H]1NC(=O)[C@H](Cc2ccc(O)cc2)NC(=O)[C@H](C(C)C)NC(=O)[C@H](CCCNC(=N)N)NC(=O)[C@H](CC(=O)O)NC(=O)C[C@@H](C(=O)N[C@@H](C(=O)N2CCC[C@@H]2C(N)=O)C(C)C)NC(=O)[C@@H]2CCCN2C(=O)[C@H](Cc2c[nH]cn2)NC1=O [TCAng04, cyc[DRVYIHPD](dV)(dP)-amide] (DRVYIHPD[dV][dP]-NH2; lactam N-8)
reduction of cell growth [3]: 51.5±5.4% | reduction of cell growth [4]: 33.7±12.3%

Compound: Ac-(Nle)DRVYIHPK(dV)(dP)-amide (Ac-[Nle]DRVYIHPK[dV][dP]-NH2; SMILES CCCC[C@H](NC(C)=O)C(=O)N[C@@H](CC(=O)O)C(=O)N[C@@H](CCCNC(=N)N)C(=O)N[C@H](C(=O)N[C@@H](Cc1ccc(O)cc1)C(=O)N[C@H](C(=O)N[C@@H](Cc1c[nH]cn1)C(=O)N1CCC[C@H]1C(=O)N[C@@H](CCCCN)C(=O)N[C@@H](C(=O)N1CCC[C@@H]1C(N)=O)C(C)C)[C@@H](C)CC)C(C)C) [L-TCAng05, linear form of TCAng05]
effect on MDA-MB-231 cell growth [3]: ineffective

Compound: [Lac(2,9)[Ac-(Nle)cyc[DRVYIHPK](dV)(dP)-amide (Ac-[Nle]DRVYIHPK[dV][dP]-NH2; lactam 2-9; not fully specified; printed as [Lac(2,9)[Ac-(Nle)cyc[DRVYIHPK](dV)(dP)-amide) [TCAng05]
inhibition of growth in the presence of Ang-(1-7) receptor antagonist Dala ([3]; 100 nM peptide plus 1 μM D-Alanine7-Ang-(1-7) [Dala]): blocked | effect on MDA-MB-231 cell growth [3]: reduced growth | reduction of cell growth [3]: 51.5±5.4% | reduction of cell growth [4]: 33.7±12.3% | final tumor size (volume) ([2]; 24 μg/kg/h, subcutaneous osmotic mini-pump, saline 980.1±35.0): 259.1±19.2 mm^3 | tumor size across doses ([2]; 6, 12, 24 μg/kg/h subcutaneous): dose-dependent reduction | reduction in tumor weight ([2]; highest concentration (24 μg/kg/h), subcutaneous, at sacrifice): 48% | effect of low and medium doses ([2]; low (6 μg/kg/h) and medium (12 μg/kg/h) doses, subcutaneous): not significantly impact | weight of the mice, size of hearts and kidneys ([2]; mouse, in vivo, sc): no change | final tumor volume ([5]; high dose 300 μg/kg/day): 378.3±151.2 mm^3 | effect of low dose ([5]; low dose 12 μg/kg/day, oral): not significantly impact | final tumor volume ([5]; medium dose 60 μg/kg/day): 289.7±64.2 mm^3 | tumor weight ([5]; medium or high oral dose, at sacrifice): reduced | mouse weight, heart weight or kidney weight ([5]; mouse, in vivo, po): no effect | Ki67 immunoreactivity in tumor sections [6]: dose-dependent reduction | density of blood vessels (CD34) in tumor sections [7]: significant reduction | collagen staining (Picrosirius red) in tumor sections [8]: reduced | reduction of cell growth ([9]; Ang-(1-7) added daily, analogs added twice weekly): 27.3±9.8%

Compound: [Lac(2,9)]Ac-(Nle)cyc[DRVYAHPK](dV)(dP)-amide (Ac-[Nle]DRVYAHPK[dV][dP]-NH2; lactam 2-9; not fully specified; printed as [Lac(2,9)]Ac-(Nle)cyc[DRVYAHPK](dV)(dP)-amide) [NEP4]
growth inhibition compared with Ang-(1-7) and TCAng05 [9]: reduced cell growth comparably

Compound: [Lac(2,9)]Ac-(Nle)cyc[DRVYIHP(Dab)](dV)(dP)-amide [NEP24]
growth inhibition compared with Ang-(1-7) and TCAng05 [9]: reduced cell growth comparably

Compound: [Lac(2,9)]Ac-(Nle)cyc[DRVYIHP(K)-amide] (Ac-[Nle]DRVYIHPK-NH2; lactam 2-9; not fully specified; printed as [Lac(2,9)]Ac-(Nle)cyc[DRVYIHP(K)-amide]) [NEP8]
growth inhibition compared with Ang-(1-7) and TCAng05 [9]: reduced cell growth comparably

Compound: [Lac(2,9)]Ac-(Nle)cyc[DRVYIHP(NMeK)](dV)(dP)-amide [NEP20]
growth inhibition compared with Ang-(1-7) and TCAng05 [9]: reduced cell growth comparably

Compound: [Lac(2,9)]Ac-(Nle)cyc[DRVYLHPK](dV)(dP)-amide (Ac-[Nle]DRVYLHPK[dV][dP]-NH2; lactam 2-9; not fully specified; printed as [Lac(2,9)]Ac-(Nle)cyc[DRVYLHPK](dV)(dP)-amide) [NEP12]
growth inhibition compared with Ang-(1-7) and TCAng05 [9]: reduced cell growth comparably

Compound: [Lac(2,9)]H2N-(Nle)cyc[DRVYIHPK](dV)(dP)-amide (H-[Nle]DRVYIHPK[dV][dP]-NH2; lactam 2-9; not fully specified; printed as [Lac(2,9)]H2N-(Nle)cyc[DRVYIHPK](dV)(dP)-amide) [NEP16]
growth inhibition compared with Ang-(1-7) and TCAng05 [9]: reduced cell growth comparably
